{"source": "patent US20060188866A1", "about": "“Diaminophenothiazine compositions and uses thereof” (Children's Hospital Oakland Research Institute, priority 2005, published 2006)", "key": {"mitochondrial complex IV": {"system": "mitochondrial complex IV", "test": "Level of mitochondrial complex IV in IMR90 cells (subunit II antibody, western blotting)"}, "[1]": {"details": "65 mg three times a day; cited from earlier work"}, "[2]": {"details": "300 mg/day for one year; cited from earlier work"}, "IMR90 cells [3]": {"system": "IMR90 cells", "test": "H2O2-induced senescence of methylene blue-treated IMR90 cells", "format": "cell-based, human", "details": "continuous 100 nM; 10 μM H2O2", "description": "In another experiment, the effect of hydrogen peroxide (H2O2) on senescence of methylene blue-treated cells was tested. IMR90 cells were seeded at an initial density of 0.5×10^6/dish and grown for two weeks in the presence of methylene blue prior to H2O2 treatment. Thereafter, cells were harvested weekly, counted, and seeded with or without methylene blue and/or 10 μM H2O2. Cells that were treated with hydrogen peroxide without methylene blue treatment had accelerated senescence. The H2O2-induced senescence was prevented when these cells were continuously treated with 100 nM methylene blue."}, "IMR90 cells [4]": {"system": "IMR90 cells", "test": "Replicative life span of IMR90 cells (population doubling level)"}, "[5]": {"details": "rats; injected 1 mg/kg; cited from earlier work"}}, "data": [{"smiles": "CN(C)c1ccc2nc3ccc(=[N+](C)C)cc-3sc2c1", "note": "[methylene blue]", "values": [{"measurement": "effect on complex IV", "setting": "mitochondrial complex IV; 1000 nM, IMR90 cells", "value": "caused removal of complex IV from the mitochondria"}, {"measurement": "increase in level of complex IV above age-matched controls", "setting": "mitochondrial complex IV; IMR90 cells", "value": "approximately 30%"}, {"measurement": "management of chronic renal calculous disease", "setting": "[1]", "value": "useful"}, {"measurement": "depression compared with 15 mg/day placebo", "setting": "[2]", "value": "significantly less depressed"}, {"measurement": "H2O2-induced senescence", "setting": "IMR90 cells [3]", "value": "prevented"}, {"measurement": "increase in PDL", "setting": "IMR90 cells [4]; IMR90 cells seeded in 5% oxygen", "value": "10-15"}, {"measurement": "delay of senescence", "setting": "IMR90 cells [4]; IMR90 cells seeded in air", "value": "25-30 population doublings"}, {"measurement": "optimal concentration for delaying senescence", "setting": "IMR90 cells [4]; IMR90 cells seeded in air", "value": "10 to 100", "unit": "nM"}, {"measurement": "brain oxidative metabolism", "setting": "[5]", "value": "improved"}, {"measurement": "memory retention", "setting": "[5]", "value": "improved"}]}, {"smiles": "Nc1ccc2nc3ccc(N)cc3[s+]c2c1", "note": "[thionine]", "values": [{"measurement": "effect on level of complex IV", "setting": "mitochondrial complex IV; IMR90 cells after treatment", "value": "increase in complex IV"}, {"measurement": "effect on senescence (replicative life span)", "setting": "IMR90 cells [4]; 100 nM, IMR90 cells", "value": "effective"}]}]}
